Data taken from PubChem BioAssay (NCI).
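Cultured in 96-well plates, cells were exposed to test compound for 48 hours across five concentrations. GI50 = concentration required for 50% inhibition of growth. At the TGI there is no net growth.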

What was measured:
Assay in all cases: DTP human tumour cell line panel, 48 h
CCRF-CEM leukemia = test system: CCRF-CEM leukemia
RPMI-8226 leukemia = test system: RPMI-8226 leukemia
NCI-H460 lung = test system: NCI-H460 lung
COLO 205 colon = test system: COLO 205 colon
UO-31 renal = test system: UO-31 renal
SNB-75 CNS = test system: SNB-75 CNS
HL-60(TB) leukemia = test system: HL-60(TB) leukemia
SF-295 CNS = test system: SF-295 CNS
OVCAR-5 ovarian = test system: OVCAR-5 ovarian

| SMILES | GI50 (CCRF-CEM leukemia) [µM] | TGI (CCRF-CEM leukemia) [µM] | GI50 (RPMI-8226 leukemia) [µM] | TGI (RPMI-8226 leukemia) [µM] | GI50 (NCI-H460 lung) [µM] | TGI (NCI-H460 lung) [µM] | GI50 (COLO 205 colon) [µM] | TGI (COLO 205 colon) [µM] | GI50 (UO-31 renal) [µM] | GI50 (SNB-75 CNS) [µM] | TGI (SNB-75 CNS) [µM] | GI50 (HL-60(TB) leukemia) [µM] | TGI (HL-60(TB) leukemia) [µM] | GI50 (SF-295 CNS) [µM] | TGI (SF-295 CNS) [µM] | TGI (OVCAR-5 ovarian) [µM] | TGI (UO-31 renal) [µM] | GI50 (OVCAR-5 ovarian) [µM] |
| --- | --- | --- | --- | --- | --- | --- | --- | --- | --- | --- | --- | --- | --- | --- | --- | --- | --- | --- |
| CC(=O)[O][Hg][c]1s[c]([Hg][O]C(C)=O)[c]([Hg][O]C(C)=O)[c]1[Hg][O]C(C)=O | 1.18 | > 100 | 7.54 | > 100 | 2.35 | > 100 | 15.9 | 38.6 | 4.61 | 4.91 | 25.4 | 5.12 | > 100 | 13.5 | 40.1 | – | – | – |
| Cc1ccc(C)c(NC(=O)C(=O)Nn2c(=S)[nH]c3ccccc3c2=O)c1 | – | > 100 | – | > 100 | – | > 100 | – | > 100 | – | – | > 100 | – | > 100 | – | > 100 | > 100 | > 100 | – |
| O/N=C1\C(=C\c2ccc3c(c2)OCCO3)CCCC1C(NO)c1ccc2c(c1)OCCO2 (stereo unspecified) | – | 48.9 | – | > 100 | – | 51.3 | – | 98.4 | – | – | 72.6 | – | 71 | – | > 100 | > 100 | 68.7 | – |
| CC1OC(=O)N2CCC=CC12 (stereo unspecified) | – | > 100 | – | > 100 | – | > 100 | – | > 100 | – | – | > 100 | – | – | – | > 100 | > 100 | > 100 | – |
| COc1cc([C@@H]2c3cc4c(cc3[C@@H](NCc3cccc(F)c3)C3COC(=O)[C@@H]32)OCO4)cc(OC)c1O (stereo partly specified) | – | 18.1 | – | 19.2 | – | 9.23 | – | > 65 | – | – | 13.5 | – | 3.93 | – | > 65 | 51.3 | 14.3 | – |
| Cc1nc(-n2nc(-c3ccccc3)cc2-c2ccccc2)sc1C(=O)/C=C/c1cccc([N+](=O)[O-])c1 | – | 44.4 | – | 19.4 | – | 92 | – | 30.8 | – | – | 51.7 | – | 31.3 | – | 43.1 | 50.9 | 23.7 | – |
| CCOc1ccccc1NC(=O)C1=C(C)NC(C)=C(C(=O)Nc2ccccc2OCC)C1c1cccc([N+](=O)[O-])c1 | – | > 100 | – | > 100 | – | > 100 | – | > 100 | – | – | 89.3 | – | > 100 | – | > 100 | > 100 | > 100 | – |
| O=C(N/C(=C\c1ccc(F)cc1)c1nc2ccccc2[nH]1)c1ccccc1 | – | > 100 | – | > 100 | – | > 100 | – | > 100 | – | – | > 100 | – | – | – | – | > 100 | > 100 | – |
| Cc1ccc([N+]2=NC(c3ccccc3)=NN(c3ccccc3)C2)cc1 | – | 79.9 | – | > 100 | – | > 100 | – | > 100 | – | – | – | – | > 100 | – | > 100 | > 100 | > 100 | – |
| CN1C/C(=C\c2ccc(C(=O)O)cc2)C(=O)/C(=C/c2ccc(C(=O)O)cc2)C1 | – | > 100 | – | > 100 | – | > 100 | – | > 100 | – | – | > 100 | – | > 100 | – | > 100 | > 100 | > 100 | – |
| COC(=O)C(C)Oc1ccc(O)cc1 (stereo unspecified) | – | > 100 | – | > 100 | – | > 100 | – | > 100 | – | – | > 100 | – | > 100 | – | > 100 | > 100 | > 100 | – |
| COC(=O)C(/C(=N\O)C(=O)Nc1ccc(Br)cc1)c1nc2ccccc2[nH]c1=O (stereo unspecified) | – | 72.9 | – | 61.6 | – | > 100 | – | 37.5 | – | – | > 100 | – | 55.3 | – | > 100 | > 100 | > 100 | – |
| c1ccc(-c2cc3n4c(-c5ccccc5)nn(-c5ccccc5)c4cnc-3n2)cc1 | > 50 | > 50 | > 50 | > 50 | – | – | – | – | > 50 | 5.39 | 17.8 | > 50 | > 50 | 2.35 | > 50 | > 50 | > 50 | > 50 |
| CC(CC(=O)Nc1ccc(NC(=O)CC(C)N=NC(N)=O)cc1)N=NC(N)=O (stereo unspecified) | – | > 100 | – | > 100 | – | > 100 | – | > 100 | – | – | > 100 | – | > 100 | – | > 100 | > 100 | > 100 | – |
| C#C[C@@H](CCCC)OC(=O)N[C@H](C)c1ccccc1 | – | > 100 | – | 87.6 | – | > 100 | – | – | – | – | 97.5 | – | 42 | – | > 100 | > 100 | 65.4 | – |
| Cc1c(Cl)cccc1NC(=O)C(=O)c1c(O)c2ccc(O)cc2oc1=O | – | > 100 | – | – | – | > 100 | – | > 100 | – | – | > 100 | – | > 100 | – | > 100 | > 100 | > 100 | – |
| COC1CC(n2cc(F)c(N)nc2=O)OC1CO (stereo unspecified) | – | > 100 | – | > 100 | – | > 100 | – | > 100 | – | – | > 100 | – | > 100 | – | > 100 | > 100 | > 100 | – |

| SMILES | GI50 (CCRF-CEM leukemia) [µM] | TGI (CCRF-CEM leukemia) [µM] | GI50 (RPMI-8226 leukemia) [µM] | TGI (RPMI-8226 leukemia) [µM] | GI50 (NCI-H460 lung) [µM] | TGI (NCI-H460 lung) [µM] | GI50 (COLO 205 colon) [µM] | TGI (COLO 205 colon) [µM] | GI50 (UO-31 renal) [µM] | GI50 (SNB-75 CNS) [µM] | TGI (SNB-75 CNS) [µM] | GI50 (HL-60(TB) leukemia) [µM] | TGI (HL-60(TB) leukemia) [µM] | GI50 (SF-295 CNS) [µM] | TGI (SF-295 CNS) [µM] | TGI (OVCAR-5 ovarian) [µM] | TGI (UO-31 renal) [µM] | GI50 (OVCAR-5 ovarian) [µM] |
| --- | --- | --- | --- | --- | --- | --- | --- | --- | --- | --- | --- | --- | --- | --- | --- | --- | --- | --- |
| N#C/C(=C1\OC(N)=C(c2ccc(Cl)cc2)C1=O)c1ccc(Cl)cc1 | – | 73.5 | – | 50 | – | 34 | – | 32.8 | – | – | 32.4 | – | 44.4 | – | 29.2 | 9.74 | 29.8 | – |
| CC1=C2C3OC(=O)C(C)C3C(O)C[C@@]2(C)C(=O)CC1 (stereo partly specified) | – | > 100 | – | > 100 | – | > 100 | – | > 100 | – | – | > 100 | – | > 100 | – | > 100 | > 100 | > 100 | – |
| C/C(=N\Nc1n[nH]c(=S)n1N)c1c(O)cc(C)oc1=O | – | > 100 | – | – | – | > 100 | – | – | – | – | > 100 | – | > 100 | – | > 100 | – | > 100 | – |
| O=C1C(=Cc2ccc(F)cc2)C(=O)c2ccccc21 | – | > 100 | – | > 100 | – | > 100 | – | > 100 | – | – | 95.4 | – | > 100 | – | > 100 | > 100 | > 100 | – |
| NC(=O)c1nc(-c2ccc(Cl)c(Cl)c2)nc2ccccc12 | – | > 100 | – | > 100 | – | > 100 | – | > 100 | – | – | 11.7 | – | > 100 | – | > 100 | > 100 | > 100 | – |
| COc1cc(CCc2ccncc2)cc(OC)c1OC | – | > 100 | – | > 100 | – | > 100 | – | > 100 | – | – | > 100 | – | > 100 | – | > 100 | > 100 | > 100 | – |
| O=C(CCc1cc(-c2ccc(F)cc2)n[nH]1)N(Cc1ccccc1)Cc1ccccc1 | – | > 100 | – | > 100 | – | > 100 | – | > 100 | – | – | > 100 | – | – | – | > 100 | > 100 | > 100 | – |
| C=CCO[C@H]1CC[C@@]2(C)C(CC[C@]3(C)C2CC=C2[C@@H]4[C@@H](C)C(C)CC[C@]4(C(=O)O)CCC23C)C1(C)C (stereo partly specified) | – | 28.9 | – | – | – | 36.3 | – | 32.4 | – | – | 30.2 | – | 22 | – | 27.5 | – | 31.2 | – |
| C=CCCC(=O)CC(=O)OCc1ccccc1 | – | > 100 | – | > 100 | – | > 100 | – | > 100 | – | – | > 100 | – | > 100 | – | > 100 | > 100 | > 100 | – |
| Oc1ccc(O)c(-n2cccn2)c1-n1cccn1 | – | > 10 | – | > 100 | – | > 100 | – | 90.1 | – | – | > 100 | – | > 10 | – | > 100 | > 100 | > 100 | – |
| CCCCCC/C(CC(=O)CCC(=O)NCCc1ccccc1)=N\Nc1ccc([N+](=O)[O-])cc1[N+](=O)[O-] | – | 60.6 | – | 81.7 | – | > 100 | – | > 100 | – | – | – | – | 70.5 | – | > 100 | > 100 | > 100 | – |
| N#CC(C#N)C(c1ccccc1)c1ccccc1 | – | > 100 | – | > 100 | – | > 100 | – | > 100 | – | – | – | – | > 100 | – | > 100 | > 100 | > 100 | – |
| O=C(N/N=C/c1ccc(N(CCCl)CCCl)cc1)c1ccc(C(=O)N/N=C/c2ccc(N(CCCl)CCCl)cc2)cc1 | 0.0349 | > 100 | 1.33 | 15.1 | 0.038 | > 100 | 15.8 | > 100 | > 100 | 6.74 | > 100 | – | > 100 | 0.213 | > 100 | > 100 | > 100 | 71.5 |
| Cc1nc(-n2nc(-c3ccccc3)cc2-c2ccccc2)sc1C(=O)CC(=O)C(=O)Nc1ccc(O)cc1 | – | > 100 | – | > 100 | – | – | – | > 100 | – | – | > 100 | – | > 100 | – | > 100 | > 100 | > 100 | – |
| CN(C)C(=S)/N=c1\ss/c(=N\S(=O)(=O)c2ccccc2)n1C | – | > 100 | – | > 100 | – | > 100 | – | – | – | – | > 100 | – | > 100 | – | > 100 | > 100 | > 100 | – |
| CCN1CCC(O)(/C=C/c2ccccc2)C(C(=O)/C=C/c2ccccc2)C1 (stereo unspecified) | – | – | – | – | – | 4.03 | – | 3.49 | – | – | 19.2 | – | 4.08 | – | 9.73 | 8.38 | 21.7 | – |
| COC(=O)C#CC(N)=O | – | 36.4 | – | – | – | > 100 | – | > 100 | – | – | > 100 | – | 19.8 | – | > 100 | > 100 | > 100 | – |
